One series deals with T1, BTK (Homo sapiens, UniProt Q06187).
T1 construct: endogenous in cells; host or cells: Mino cells
The series can be described thus: BTK degradation activity test in Mino cells. Format: cell-based. As to conditions: 16 h incubation, Western blot or Elisa. An outline of the steps: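 Mino cells treated with a concentration series of compound for 16 h, then lysed; total protein by BCA. BTK quantified by Western blot or ELISA, degradation rate calculated against blank control, and DC50 fitted from the degradation curve.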
Background: In western blotting, separated proteins are transferred to a membrane and probed.

For another series, the target named is T2, BTK-C481S (Homo sapiens, UniProt Q06187, C481S).
T2 construct: expressed in transfected cells; host or cells: HEK293 OE BTK-C481S (overexpressing) cell line
The series can be described thus: BTK-C481S degradation activity test in HEK293 OE BTK-C481S cells. The class given is cell-based. As to conditions: 24 h incubation, Western blot or Elisa. As for the experimental part:
HEK293 OE BTK-C481S cell line cells were seeded at 500,000 to 1,000,000 cells/well in a 6-well plate. The compounds were diluted to different concentrations and added to the plate, and after 24 h of incubation, the cells were harvested. After lysing the cells, the total protein concentration in each well was determined using the BCA method. The amount of BTK-C481S was determined using Western blot or Elisa method. The amount of undegraded BTKC481S protein at each drug concentration was compared with the amount of BTKC481S protein in the blank control group to calculate the degradation rate. The degradation curve was drawn based on the degradation rate at each concentration, and the half degradation concentration (DC50) was calculated by fitting.

For a further series, the system named is OCI-LY10 cells. The series is described as follows: Inhibitory activity on OCI-LY10 cell proliferation (MTS). The class given is cell-based. As to conditions: Homo sapiens, 72 h. The essentials:
(§1)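 Cells seeded at 10000/well, treated with compounds from 1000 nM (4-fold, 8 points) for 72 h (OCI-LY10) or 168 h (Mino) at 37° C. MTS added for 2 h, stopped with SDS, absorbance read at 490 and 650 nm; IC50 from dose-response fit.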

A further series concerns Mino cells. The series can be described thus: Inhibitory activity on Mino cell proliferation (MTS). The class given is cell-based. As to conditions: Homo sapiens, 168 h incubation. The essentials:
as §1

A short description of series [1]: Stability of compounds in human liver microsome. The class given is in vitro ADME. The conditions noted are these: human liver microsomes, NADPH, 37° C., sampling 0-120 min; read-out: Human liver microsome T1/2. Here is the method: Compound to be tested: the compound to be tested (1 mg) was dissolved in DMSO (10 mL) to formulate to 0.1 mg/mL.
Internal standard compound: the internal standard compound (1 mg) was dissolved in DMSO (10 mL), 10 μL was taken and diluted to 10 mL to formulate to 100 ng/mL.
NADPH solution: NADPH (2.08 mg) was dissolved in PBS (50 μL) buffer to formulate to 50 mM.
Under the condition of ice bath, 1 mg of human liver microparticles was add to PBS (1 mL) buffer, then NADPH (20 μL) was added, and incubated at 37° C. for 5 min. 10 μL of the compound to be tested was added, and then samples were taken at 0, 15, 30, 60 and 120 min respectively. 10 μL of the solution was taken with a pipette each time and added to 490 μL of the solution containing the internal standard compound. The resulting solution was vortexed and then placed on ice, and then sampling at another time point continues. All samples were centrifuged at 10,000 rpm for 10 min, and the supernatant was taken for LC/MS testing. The metabolism of the compound in liver microsomes was calculated based on the peak area.
In general terms: Liver microsomes are a subcellular fraction often used to study metabolism.

Series [2] can be described thus: Mouse absorption test (pharmacokinetic properties in mice). Format: in vivo. As to conditions: intragastric; for DNAUC: DNAUC = AUC/Dose; for Cmax: mouse, plasma, po. Here is the method:
[…] The blood collection time points for intragastric administration were 0.25, 0.5, 1, 2, 4, 6, 8, and 24 h. 0.5 mL of blood was taken with a capillary tube from the orbit, and placed in an EP tube containing EDTA anticoagulant. The EP tube was shaken gently for mixing uniformly, and centrifuged at 3500 rpm and 4° C. for 10 min. The supernatant, i.e., plasma, was taken. Analysis was performed using LC-MS/MS.

The source of these data is patent US20240360146A1, “BRUTON'S TYROSINE KINASE AND MUTANT DEGRADER, COMPOSITION AND APPLICATION THEREOF” (HANGZHOU HEALZEN THERAPEUTICS CO., LTD., priority 2021, published 2024).

A word on the DC50: it is the concentration giving 50% degradation. By IC50 is commonly meant the point on the concentration scale where inhibition reaches its midpoint. Higher therefore signals lower potency. One may read the Cmax as the maximum level reached in the sampled fluid or tissue.

T2 sequence (Q06187 whole entry C481S): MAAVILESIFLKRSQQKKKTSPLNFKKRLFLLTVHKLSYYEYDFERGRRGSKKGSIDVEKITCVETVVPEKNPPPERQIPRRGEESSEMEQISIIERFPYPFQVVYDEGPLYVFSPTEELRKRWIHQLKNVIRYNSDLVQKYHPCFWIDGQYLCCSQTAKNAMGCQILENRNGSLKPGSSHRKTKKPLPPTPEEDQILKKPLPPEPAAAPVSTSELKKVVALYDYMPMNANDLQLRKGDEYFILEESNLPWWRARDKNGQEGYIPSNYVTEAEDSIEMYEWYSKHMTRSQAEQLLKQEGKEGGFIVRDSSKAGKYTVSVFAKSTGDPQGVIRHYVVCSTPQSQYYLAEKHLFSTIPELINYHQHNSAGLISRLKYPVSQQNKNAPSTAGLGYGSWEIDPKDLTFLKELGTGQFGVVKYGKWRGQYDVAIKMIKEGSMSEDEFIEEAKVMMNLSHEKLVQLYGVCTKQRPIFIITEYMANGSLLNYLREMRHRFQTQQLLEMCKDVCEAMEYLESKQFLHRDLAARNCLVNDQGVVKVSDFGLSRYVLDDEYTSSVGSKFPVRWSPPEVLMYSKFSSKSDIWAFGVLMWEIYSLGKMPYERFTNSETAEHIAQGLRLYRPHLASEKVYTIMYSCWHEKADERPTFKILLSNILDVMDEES
T1 sequence (Q06187 whole entry): as the sequence (Q06187 whole entry C481S) above, with S481C counted along it

Consider `CN1CCN([C@@H]2CCCN(c3nnc(C(N)=O)c(Nc4ccc(N5CCN(CC6CCN(c7ccc(C(=O)NC8CCC(=O)NC8=O)nc7)CC6)CC5)c(F)c4)n3)C2)C1=O` (stereo partly drawn) [Compound 146, 5-((4-(4-((1-(6-((2,6-dioxopiperidin-3-yl)carbamoyl)pyridin-3-yl)piperidin-4-yl)methyl)piperazin-1-yl)-3-fluorophenyl)amino)-3-((R)-3-(3-methyl-2-oxoimidazolin-1-yl)piperidin-1-yl)-1,2,4-triazin-6-carboxamide], for which the DC50 on BTK is less than 1 nM; on BTK-C481S, less than 10 nM. The IC50 is 1.39 nM with OCI-LY10 cells and 1.73 nM with Mino cells. Moreover, the half-life at 0.97 µg/mL in series [1] is more than 30 min.

Take `COc1cc(N2CCC(CN3CCN(c4ccc(Nc5nc(N6CCC[C@@H](N7CCN(C)C7=O)C6)nnc5C(N)=O)cc4F)CC3)CC2)ccc1N1CCC(=O)NC1=O` [Compound 259, (R)-5-((4-(4-((1-(4-(2,4-dioxotetrahydropyrimidin-1(2H)-yl)-3-methoxyphenyl)piperidin-4-yl)methyl)piperazin-1-yl)-3-fluorophenyl)amino)-3-(3-(3-methy 1-2-oxoimidazolidin-1-yl)piperidin-1-yl)-1,2,4-triazin-6-carboxamide]: the values for the DC50 on BTK and at BTK-C481S were less than 1 nM and less than 10 nM, respectively. The IC50 is 0.61 nM in the series with OCI-LY10 cells and 5.58 nM with Mino cells. Moreover, the half-life at 0.97 µg/mL in series [1] is more than 30 min. In series [2] (30 mg/kg), this compound yielded a DNAUC of 2223 ng/ml*h/mpk. This compound gave a Cmax in series [2] (30 mg/kg, class symbols) of more than 6000 ng/mL.

In the case of `CN1CCN([C@@H]2CCCN(c3nnc(C(N)=O)c(Nc4ccc(N5CCN(CC6CCN(c7ccc8c(c7)C(=O)N(C7CCC(=O)NC7=O)C8=O)C6)CC5)c(F)c4)n3)C2)C1=O` (stereo partly drawn) [Compound 130, 5-((4-(4-((1-(2-(2,6-dioxopiperidin-3-yl)-1,3-dioxoisoindolin-5-yl)pyrrolidin-3-yl)methyl)piperazin-1-yl)-3-fluorophenyl)amino)-3-((R)-3-(3-methyl-2-oxoimidazolin-1-yl)piperidin-1-yl)-1,2,4-triazin-6-carboxamide], the results for the DC50 at BTK and on BTK-C481S were less than 1 nM and less than 10 nM, respectively. In addition, the concentration for half-maximal inhibition (IC50) amounted to 0.28 nM with OCI-LY10 cells and 2.41 nM in the series on Mino cells. The half-life at 0.97 µg/mL in series [1] came to 32.6 min. Moreover, the DNAUC in series [2] (30 mg/kg) was determined as 3809 ng/ml*h/mpk. The Cmax in series [2] (30 mg/kg, class symbols) was more than 6000 ng/mL.

For `CN1CCN([C@@H]2CCCN(c3nnc(C(N)=O)c(Nc4ccc(N5CCN(CC6CCN(c7ccc(N8CCC(=O)NC8=O)cc7)CC6)CC5)c(F)c4)n3)C2)C1=O` [Compound 255, (R)-5-((4-(4-((1-(4-(2,4-dioxotetrahydropyrimidin-1(2H)-yl)phenyl)piperidin-4-yl)methyl)piperazin-1-yl)-3-fluorophenyl)amino)-3-(3-(3-methyl-2-oxoimidazolidin-1-yl)piperidin-1-yl)-1,2,4-triazin-6-carboxamide], the figures for the DC50 at BTK and on BTK-C481S were less than 1 nM and less than 10 nM, respectively. Besides, the IC50 with OCI-LY10 cells was 1.5 nM; with Mino cells it was less than 0.26 nM. Besides, the half-life at 0.97 µg/mL in series [1] is more than 30 min. For the same compound, the DNAUC in series [2] (30 mg/kg) came to 1955 ng/ml*h/mpk. In series [2] (30 mg/kg, class symbols), this compound showed a peak concentration (Cmax) of more than 6000 ng/mL.

The compound `CN1CCN([C@@H]2CCCN(c3nnc(C(N)=O)c(Nc4ccc(N5CCN(CC6CCN(c7ccc(C(=O)N[C@H]8CCC(=O)NC8=O)nc7)C6)CC5)c(F)c4)n3)C2)C1=O` (stereo partly drawn) [Compound 145, 5-((4-(4-((1-(6-(((S)-2,6-dioxopiperidin-3-yl)carbamoyl)pyridin-3-yl)pyrrolidin-3-yl)methyl)piperazin-1-yl)-3-fluorophenyl)amino)-3-((R)-3-(3-methyl-2-oxoimidazolin-1-yl)piperidin-1-yl)-1,2,4-triazin-6-carboxamide] came in with a DC50 at BTK of less than 1 nM. This compound also came in with a 50% inhibitory concentration (IC50) in the series on OCI-LY10 cells of 0.56 nM. The IC50 with Mino cells came out at 4.15 nM. For the same compound, in series [1], the half-life at 0.97 µg/mL is more than 30 min. Besides, in series [2] (30 mg/kg), the DNAUC worked out at 2704 ng/ml*h/mpk and the Cmax worked out at 13800 ng/mL.

`COc1ccc(C(=O)N2CCC(CN3CCN(c4ccc(Nc5nc(N6CCC[C@@H](N7CCN(C)C7=O)C6)nnc5C(N)=O)cc4F)CC3)C2)cc1N1CCC(=O)NC1=O` (stereo partly drawn) [Compound 149, 5-((4-(4-((1-(3-(2,4-dioxotetrahydropyrimidin-1(2H)-yl)-4-methoxybenzoyl)pyrrolidin-3-yl)methyl)piperazin-1-yl)-3-fluorophenyl)amino)-3-((R)-3-(3-methyl-2-oxoimidazolin-1-yl)piperidin-1-yl)-1,2,4-triazin-6-carboxamide]: at BTK, the DC50 was less than 1 nM. The IC50 in the series on OCI-LY10 cells came to 2.6 nM; in the series with Mino cells, 8.89 nM. In addition, the half-life at 0.97 µg/mL in series [1] was more than 30 min.

Turning to `NC(=O)c1nnc(N2CC3CC(N4C(=O)c5ccccc5C4=O)C2C3)nc1Nc1ccc(C2CCN(CC3CCN(c4ccc5c(c4)C(=O)N(C4CCC(=O)NC4=O)C5=O)CC3)CC2)cc1` (centres unmarked) [Compound 143, 3-(6-(1,3-dioxoisoindolin-2-yl)-2-azabicyclo[2.2.1]heptan-2-yl)-5-((4-(1-((1-(2-(2,6-dioxopiperidin-3-yl)-1,3-dioxoisoindolin-5-yl)piperidin-4-yl)methyl)piperidin-4-yl)phenyl)amino)-1,2,4-triazin-6-carboxamide], the half-maximal degradation concentration (DC50) on BTK was less than 1 nM. The IC50 was found to be 0.33 nM in the series on OCI-LY10 cells and 3.08 nM in the series on Mino cells. For the same compound, in series [1], the half-life at 0.97 µg/mL turned out to be 39.1 min.

`CN1CCN([C@@H]2CCCN(c3cnc(C(N)=O)c(Nc4ccc(C5CCN(CC6CCN(c7ccc8c(c7)C(=O)N(C7CCC(=O)NC7=O)C8=O)CC6)CC5)cc4)n3)C2)C1=O` (some centres unmarked) [Compound b]: the half-life at 0.97 µg/mL in series [1] turned out to be 5.18 min. Besides, in series [2] (100 mg/kg), the DNAUC stood at 631 ng/ml*h/mpk and the highest level (Cmax) was 4030 ng/mL.

As to `CN1CCN([C@@H]2CCCN(c3nnc(C(N)=O)c(Nc4ccc(N5CCN(CC6CCN(c7ccc(C(=O)NC8CCC(=O)NC8=O)c(F)c7)CC6)CC5)c(F)c4)n3)C2)C1=O` (stereo partly drawn) [Compound 254, 5-((4-(4-((1-(4-((2,6-dioxopiperidin-3-yl)carbamoyl)-3-fluorophenyl)piperidin-4-yl)methyl)piperazin-1-yl)-3-fluorophenyl)amino)-3-((R)-3-(3-methyl-2-oxoimidazolidin-1-yl)piperidin-1-yl)-1,2,4-triazin-6-carboxamide], the DC50 on BTK was less than 1 nM. In the series with OCI-LY10 cells, this compound returned an IC50 of 0.89 nM. Moreover, in series [1], the half-life at 0.97 µg/mL is more than 30 min. Also, the DNAUC in series [2] (30 mg/kg) was 2536 ng/ml*h/mpk. In series [2] (30 mg/kg, class symbols), this compound returned a Cmax of more than 6000 ng/mL.

On BTK, `NC(=O)c1nnc(N2CCC[C@@H](N3C(=O)CCC3=O)C2)nc1Nc1ccc(C2CCN(CC3CCN(c4ccc5c(c4)C(=O)N(C4CCC(=O)NC4=O)C5=O)C3)CC2)cc1` (stereo partly drawn) [Compound 136, 5-((4-(1-((1-(2-(2,6-dioxopiperidin-3-yl)-1,3-dioxoisoindolin-5-yl)pyrrolidin-3-yl)methyl)piperidin-4-yl)phenyl)amino)-3-((R)-3-(2,5-dioxopyrrolidin-1-yl)piperidin-1-yl)-1,2,4-triazin-6-carboxamide] showed a DC50 of less than 1 nM. The IC50 was determined as 0.79 nM with OCI-LY10 cells and 1.61 nM in the series on Mino cells. Also, in series [1], the half-life at 0.97 µg/mL was found to be 24 min.

Compound `CN1CCN([C@@H]2CCCN(c3nnc(C(N)=O)c(Nc4ccc(N5CCN(CC6CCN(c7ccc(N8CCC(=O)NC8=O)cc7)C6)CC5)c(F)c4)n3)C2)C1=O` (stereo partly drawn) [Compound 147, 5-((4-(4-((1-(4-(2,4-dioxotetrahydropyrimidin-1(2H)-yl)phenyl)pyrrolidin-3-yl)methyl)piperazin-1-yl)-3-fluorophenyl)amino)-3-((R)-3-(3-methyl-2-oxoimidazolin-1-yl)piperidin-1-yl)-1,2,4-triazin-6-carboxamide] displayed a DC50 on BTK of less than 1 nM. The IC50 is 1.48 nM with OCI-LY10 cells and 0.54 nM with Mino cells. The half-life at 0.97 µg/mL in series [1] was more than 30 min.
